From US11981641B1, “4,5-bis(4-bromophenyl)-1-hexyl-2-(3,4-dimethoxyphenyl)-1H-imidazole as an antimicrobial compound” (KING FAISAL UNIVERSITY, priority 2023, dated 2024)

Assays:
Assay type in all cases: cell-based
Conditions in all cases: after 10, 20, 40 and 60 minutes at all dilutions 1:100, 1:200, 1:400, 1:800
Staphylococcus aureus = test: antimicrobial screening by agar dilution, St. aureus
Experimental: (§1) The antimicrobial properties of the 4,5-bis(4-bromophenyl)-1-hexyl-2-(3,4-dimethoxyphenyl)-1H-imidazole was studied by the method of agar dilution. Test solutions of each compound was prepared in concentration of 1% using dimethylformamide as a solvent then they were diluted in physiological solution to obtain the final experimental dilutions 1: 100, 1:200, 1:400, 1:800. The effect of these substances were compared with furacillin in a controlled study. The testing microbes used were gram positive bacteria Staphylococcus aureus, gram negative bacteria Pseudomonas aeruginosa and Escherichia coli and Candida albicans fungi were taken. The experiments used for this survey were meat-pentonlu agar (EPA) for cultivation of bacteria and Saburo environment for fungi. Each experiment used 1 ml of test solution on each plate 500 min. Add 2 drops of emulsified with microbes feel. All experimental samples were taken from the agar after 10, 20, 40, 60 minutes in the environment on the basis of Patrk planted. Bacteria were cultivated at a temperature of 37° C. for 1 day and the mushroom was kept in a thermostat for […] at a temperature of 28° C. Then results were checked.

Escherichia coli = test: antimicrobial screening by agar dilution, E. coli
Experimental: as §1

Pseudomonas aeruginosa = test: antimicrobial screening by agar dilution, Ps. aeruginosa
Experimental: as §1

Candida albicans = test: antimicrobial screening by agar dilution, Candida albicans
Experimental: as §1

Measured: inhibition activity

CCCCCCn1c(-c2ccc(OC)c(OC)c2)nc(-c2ccc(Br)cc2)c1-c1ccc(Br)cc1 [4,5-bis(4-bromophenyl)-1-hexyl-2-(3,4-dimethoxyphenyl)-1H-imidazole]
highest inhibition activity: Staphylococcus aureus | Escherichia coli | Pseudomonas aeruginosa | Candida albicans
